Experimental findings from ChEMBL document CHEMBL1770081, “Inhibition and structural reliability of prenylated flavones from the stem bark of Morus lhou on β-secretase (BACE-1)” (Bioorg Med Chem Lett, 2011) are described below.

The target in assay [1] is T1, Beta-secretase 1 (Homo sapiens, UniProt P56817). Nature of the assay: Inhibition of human recombinant BACE-1 expressed in HEK293 cells assessed as inhibition of amyloid precursor protein cleavage into amyloid beta after 60 mins using Rh-EVNLDAEFK-Quencher as a substrate by FRET assay. It counts as cell-based.
For assay [2], the target named is T1, Beta-secretase 1. Nature of the assay: Noncompetitive inhibition of human recombinant BACE-1 by Dixon plot analysis.

For orientation: IC50 means the concentration at which inhibition is half-maximal. As a reminder, the Ki is the equilibrium dissociation constant of an inhibitor or competing ligand from its target.

T1 sequence (P56817 whole entry): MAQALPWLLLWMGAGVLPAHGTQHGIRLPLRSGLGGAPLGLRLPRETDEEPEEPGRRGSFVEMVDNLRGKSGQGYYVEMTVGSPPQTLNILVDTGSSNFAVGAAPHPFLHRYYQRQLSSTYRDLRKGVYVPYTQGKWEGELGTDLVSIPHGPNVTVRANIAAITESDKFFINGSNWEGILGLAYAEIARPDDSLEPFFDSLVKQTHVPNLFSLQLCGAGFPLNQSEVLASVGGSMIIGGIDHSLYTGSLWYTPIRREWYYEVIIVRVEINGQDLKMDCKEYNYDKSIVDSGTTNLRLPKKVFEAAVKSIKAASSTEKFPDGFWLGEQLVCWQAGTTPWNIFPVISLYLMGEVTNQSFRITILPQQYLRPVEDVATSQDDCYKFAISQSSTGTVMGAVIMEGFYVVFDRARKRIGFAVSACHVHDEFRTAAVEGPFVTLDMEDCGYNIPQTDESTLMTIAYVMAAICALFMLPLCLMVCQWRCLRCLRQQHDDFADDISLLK

With `CC(C)=CC1Oc2cc(O)ccc2-c2oc3c4c(cc(O)c3c(=O)c21)OC(C)(C)C=C4` (configuration not stated) [CYCLOMORUSIN], the half-maximal inhibitory concentration (IC50) on Beta-secretase 1 [1] turned out to be 101 µM.

As to `CC(C)=CCc1c(-c2ccc(O)c3c2OC(C)(C)C=C3)oc2cc(O)cc(O)c2c1=O` [KUWANON A], the inhibition constant Ki at Beta-secretase 1 [2] was determined as 10.6 µM. The 50% inhibitory concentration (IC50) on Beta-secretase 1 [1] came to 5.3 µM. In the same order, the values of `CC(C)=CCc1c(-c2ccc(O)cc2O)oc2c(CC=C(C)C)c(O)cc(O)c2c1=O` [KUWANON C] are 2.2 µM and 3.4 µM.

In the case of `C/C(=C/Cc1c(-c2ccc(O)cc2O)oc2c3c(cc(O)c2c1=O)OC(C)(CO)C=C3)CO` (configuration not stated) [MORMIN], on Beta-secretase 1 [1], the IC50 amounted to 103 µM. Turning to `CC(C)(O)CCc1c(-c2ccc(O)cc2O)oc2c3c(cc(O)c2c1=O)OC(C)(C)C=C3` [MORUSINOL], the half-maximal inhibitory concentration (IC50) on Beta-secretase 1 [1] is 136 µM. Regarding `CC(C)=CCc1c(-c2ccc(O)cc2O)oc2c3c(cc(O)c2c1=O)OC(C)(C)C=C3` [MORUSIN], the Ki at Beta-secretase 1 [2] stood at 64.1 µM. Moreover, the half-maximal inhibitory concentration (IC50) on Beta-secretase 1 [1] came to 59.4 µM.

As to `CC1(C)C=Cc2c(cc(O)c3c(=O)c4c(oc23)-c2ccc(O)cc2OC(C(C)(C)O)C4)O1` (configuration not stated) [NEOCYCLOMORUSIN], on Beta-secretase 1 [1], the half-maximal inhibitory concentration (IC50) turned out to be 146 µM.

In the case of `O=c1cc(-c2ccc(O)cc2O)oc2cc(O)cc(O)c12` [NORARTOCARPETIN], on Beta-secretase 1 [2], the inhibition constant Ki came out at 82.6 µM. For the same compound, on Beta-secretase 1 [1], the 50% inhibitory concentration (IC50) came to 60.6 µM.
